Assay results published in publication PMC6099747, “New Tetrahydroisoquinoline Derivatives Overcome Pgp Activity in Brain-Blood Barrier and Glioblastoma Multiforme in Vitro” (Molecules : A Journal of Synthetic Chemistry and Natural …, 2018).
Read-outs that look alike come from different tables or passages of the source.

What was measured:
[1] = test system: hCMEC/D3 cells monolayer; assay: Permeability of dextran-FITC, sucrose, inulin and lucifer yellow across BBB monolayer
[2] = test system: hCMEC/D3 cells monolayer; assay: Doxorubicin delivery across BBB monolayer (Transwell); settings: 25 μM MK571 or 5 μM fumitremorgin C alone, 5 μM doxorubicin 3 h
Protocol: Cells were seeded at 50,000/cm² density, and grown for 7 days up to confluence in 6-well Transwell devices (0.4 μm diameter pores-size, Transwell insert surface: 4.67 cm^2; Corning Life Sciences, Chorges, France for transport assays) or 24-well Transwell devices (0.4 μm diameter pores-size, Transwell insert surface: 0.33 cm^2; Corning Life Sciences, for TEER measurements), to allow the formation of a competent BBB. […] TEER was measured using a Voltohmetro Millicell-ERS (Millipore, Bedford, MA, USA), according to the manufacturer’s instructions. […] This value was subtracted from each value obtained in the presence of the cells.
(A) Human cellular microvascular endothelial cells/D3 clone hCMEC/D3 cells were grown in the upper insert of Transwell devices for 7 days. […] Cell viability was measured by a chemiluminescence-based assay, in triplicates. Data are presented as means ± SD (n = 4). […] (B) hCMEC/D3 cells were grown in the upper insert of Transwell devices for 7 days. […] Cells were lysed and immunoblotted with the indicated antibodies. β-Tubulin level was used as control of equal protein loading. […] The amount of doxorubicin in the medium of the lower chamber was measured spectrofluorimetrically, in duplicates. […]
doxorubicin in the medium of the lower chamber was measured spectrofluorimetrically, in […]

[3] = molecular target: T1, Pgp (Homo sapiens, UniProt P08183); parameters: method as in PMID 27336199, PMID 26797828; settings: cited from earlier work
T1 construct: expressed in transfected cells; host or cells: MDCK (Madin-Darby Canine Kidney) cells, gift of Dr. Maria Alessandra Contino, University of Bari

[4] = test system: Caco-2 cells monolayer; parameters: method as in PMID 27336199, PMID 26797828; settings: cited from earlier work
[5] = test system: primary human GB adherent cells (AC); assay: Cytotoxicity (LDH release, caspase 3 activity, cell viability) in glioblastoma adherent cells; format: cell-based; settings: 5 µM doxorubicin alone
Protocol: Cell viability was evaluated by ATPLite kit (PerkinElmer), as per manufacturer’s instructions. The results were expressed as percentage of viable cells in each experimental condition versus untreated cells (considered 100%).
The release of LDH in cell supernatant was measured as reported in [16], using a Synergy HT microplate reader. Both intracellular and extracellular enzyme activities were expressed as μmol NADH oxidized/min/dish, then extracellular LDH activity was calculated as percentage of the total LDH activity. For cytotoxicity assays in co-cultures, 5 μM doxorubicin, alone or in the presence of compounds, was added to the upper chamber of Transwell inserts. After 24 h, both cell culture medium and GB cells from the lower chamber were collected, and checked for the activity of LDH, as described above.
The activity of caspase 3, taken as an index of apoptosis, was measured by incubating 20 µg of cell lysates, collected from GB cells or GB cells growing under BBB monolayer, as reported above, with the fluorogenic substrate of caspase 3 DEVD-7-amino-4-methylcumarine (DEVD-AMC), as reported in [11]. Results were expressed as nmoles AMC/mg proteins, using a calibration curve previously set.
Figure 3 Effects of Pgp ligands on doxorubicin cytotoxicity in glioblastoma cells. Adherent cells (AC) or neurospheres (NS) from glioblastoma samples were grown for 24 h (panel A–B) or 48 h (panel C) in fresh medium (ctrl) or in the presence of 1 nM of compounds 1–6. When indicated, 5 µM doxorubicin (doxo) was co-incubated. (A) The cell culture supernatant was checked spectrophotometrically for the extracellular activity of LDH, in duplicates. Pooled data of patients 1-3 are presented as means ± SD (n = 3). Vs. AC ctrl: * p < 0.001; vs. NS ctrl: ° p < 0.001; vs. NS doxo: ^# p < 0.001. (B) The activity of caspase 3 was measured fluorimetrically, in duplicates. Data are means ± SD (n = 3). Pooled data of patients 1–3 are presented as means ± SD (n = 3). Vs. AC ctrl: * p < 0.001; vs. NS ctrl: ° p < 0.01; vs. NS doxo: ^# p < 0.05. […] Pooled data of patients 1-3 are presented as means ± SD (n = 3). […]

[6] = test system: hCMEC/D3 cells; assay: Transendothelial electrical resistance (TEER) of BBB monolayer; format: cell-based, human; settings: 24 h
[7] = molecular target: T1, Pgp; settings: Pgp activity, calcein-AM transport; cited from earlier work
[8] = molecular target: T2, BCRP (Homo sapiens, UniProt Q9UNQ0); assay: Doxorubicin transport across BCRP-MDCK monolayer; format: cell-based; settings: 1 nM compound 24 h, 5 μM doxorubicin last 3 h
T2 construct: expressed in transfected cells; host or cells: MDCK (Madin-Darby Canine Kidney) cells, gift of Dr. Maria Alessandra Contino, University of Bari
T2 sequence (Q9UNQ0 1-655): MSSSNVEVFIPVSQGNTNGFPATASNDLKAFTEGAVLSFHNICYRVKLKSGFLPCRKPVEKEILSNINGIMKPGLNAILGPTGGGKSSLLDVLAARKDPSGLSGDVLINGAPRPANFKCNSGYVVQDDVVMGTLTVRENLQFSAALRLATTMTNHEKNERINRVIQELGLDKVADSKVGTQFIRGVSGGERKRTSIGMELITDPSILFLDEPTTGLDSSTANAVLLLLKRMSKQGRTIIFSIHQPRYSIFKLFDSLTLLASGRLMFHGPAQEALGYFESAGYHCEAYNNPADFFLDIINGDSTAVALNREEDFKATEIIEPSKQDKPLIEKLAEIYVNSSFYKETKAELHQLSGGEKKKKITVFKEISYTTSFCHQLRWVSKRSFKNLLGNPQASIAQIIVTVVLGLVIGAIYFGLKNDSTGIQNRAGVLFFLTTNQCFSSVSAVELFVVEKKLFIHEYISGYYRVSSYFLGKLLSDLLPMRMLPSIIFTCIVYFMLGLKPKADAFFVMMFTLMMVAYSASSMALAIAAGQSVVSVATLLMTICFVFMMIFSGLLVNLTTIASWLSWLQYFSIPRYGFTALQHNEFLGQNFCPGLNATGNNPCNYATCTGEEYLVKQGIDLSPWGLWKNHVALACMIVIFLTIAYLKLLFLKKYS
Protocol: (§1) MDCK, Pgp-MDCK, MRP1-MDCK and BCRP-MDCK cells were a kind gift of Dr. Maria Alessandra Contino (Department of Pharmacy, University of Bari, Italy). Culture and seeding conditions for doxorubicin transport assay were carried out as reported in [37].
(§2) Supplementary Figure S3. Effects of Pgp ligands on doxorubicin transport in Pgp-MDCK,
(§3) MRP1-MDCK and BCRP-MDCK cells
(§4) A. MDCK, Pgp-MDCK, MRP1-MDCK, BCRP-MDCK cells were lysed and immunoblotted with
(§5) h. When indicated, 50 μM verapamil (ver), an inhibitor of Pgp, 25 μM MK571, an inhibitor of […]

[9] = molecular target: T3, MRP1 (Homo sapiens, UniProt P33527); assay: Doxorubicin transport across MRP1-MDCK monolayer; format: cell-based; settings: 1 nM compound 24 h, 5 μM doxorubicin last 3 h
T3 construct: expressed in transfected cells; host or cells: MDCK (Madin-Darby Canine Kidney) cells, gift of Dr. Maria Alessandra Contino, University of Bari
Protocol: as §1, §2, §3, §4, §5

[10] = molecular target: T1, Pgp; assay: Doxorubicin transport across Pgp-MDCK monolayer; format: cell-based; settings: 1 nM compound 24 h, 5 μM doxorubicin last 3 h
Protocol: as §1, §2, §3
A. MDCK, Pgp-MDCK, MRP1-MDCK, BCRP-MDCK cells were lysed and immunoblotted with […]

T1 sequence (P08183 whole entry): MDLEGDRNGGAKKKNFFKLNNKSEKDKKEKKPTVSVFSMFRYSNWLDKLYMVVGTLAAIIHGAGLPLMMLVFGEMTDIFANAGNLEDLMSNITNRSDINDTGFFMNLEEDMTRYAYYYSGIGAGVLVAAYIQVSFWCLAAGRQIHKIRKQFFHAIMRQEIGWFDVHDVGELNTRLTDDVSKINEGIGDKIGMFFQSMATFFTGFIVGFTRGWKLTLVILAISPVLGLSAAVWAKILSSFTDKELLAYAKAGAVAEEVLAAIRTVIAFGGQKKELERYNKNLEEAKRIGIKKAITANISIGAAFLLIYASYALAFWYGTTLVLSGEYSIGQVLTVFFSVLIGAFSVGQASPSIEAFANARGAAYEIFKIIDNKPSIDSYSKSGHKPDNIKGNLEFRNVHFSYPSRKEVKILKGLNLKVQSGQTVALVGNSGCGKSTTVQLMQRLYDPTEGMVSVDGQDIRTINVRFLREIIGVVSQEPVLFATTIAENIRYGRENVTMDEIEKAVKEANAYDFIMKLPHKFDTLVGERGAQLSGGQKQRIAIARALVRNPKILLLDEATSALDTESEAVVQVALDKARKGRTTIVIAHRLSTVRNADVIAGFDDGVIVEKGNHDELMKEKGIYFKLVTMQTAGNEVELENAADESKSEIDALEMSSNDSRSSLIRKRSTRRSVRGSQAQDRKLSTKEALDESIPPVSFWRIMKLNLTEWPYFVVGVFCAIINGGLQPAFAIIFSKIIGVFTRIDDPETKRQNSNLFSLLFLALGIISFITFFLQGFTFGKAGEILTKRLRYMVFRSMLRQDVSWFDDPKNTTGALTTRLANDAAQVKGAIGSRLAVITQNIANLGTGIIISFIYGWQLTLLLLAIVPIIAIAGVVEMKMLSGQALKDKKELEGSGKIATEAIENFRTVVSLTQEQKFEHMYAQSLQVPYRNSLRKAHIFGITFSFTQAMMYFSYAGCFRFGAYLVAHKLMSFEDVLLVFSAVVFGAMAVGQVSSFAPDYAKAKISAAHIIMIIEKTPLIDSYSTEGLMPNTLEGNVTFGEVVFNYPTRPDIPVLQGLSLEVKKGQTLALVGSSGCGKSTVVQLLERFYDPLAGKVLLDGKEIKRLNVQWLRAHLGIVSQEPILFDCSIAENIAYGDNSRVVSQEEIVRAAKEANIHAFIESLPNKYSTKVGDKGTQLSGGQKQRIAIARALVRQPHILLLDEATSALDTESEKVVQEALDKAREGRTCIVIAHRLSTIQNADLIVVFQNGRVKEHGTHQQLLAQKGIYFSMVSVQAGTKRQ
T3 sequence (P33527 whole entry): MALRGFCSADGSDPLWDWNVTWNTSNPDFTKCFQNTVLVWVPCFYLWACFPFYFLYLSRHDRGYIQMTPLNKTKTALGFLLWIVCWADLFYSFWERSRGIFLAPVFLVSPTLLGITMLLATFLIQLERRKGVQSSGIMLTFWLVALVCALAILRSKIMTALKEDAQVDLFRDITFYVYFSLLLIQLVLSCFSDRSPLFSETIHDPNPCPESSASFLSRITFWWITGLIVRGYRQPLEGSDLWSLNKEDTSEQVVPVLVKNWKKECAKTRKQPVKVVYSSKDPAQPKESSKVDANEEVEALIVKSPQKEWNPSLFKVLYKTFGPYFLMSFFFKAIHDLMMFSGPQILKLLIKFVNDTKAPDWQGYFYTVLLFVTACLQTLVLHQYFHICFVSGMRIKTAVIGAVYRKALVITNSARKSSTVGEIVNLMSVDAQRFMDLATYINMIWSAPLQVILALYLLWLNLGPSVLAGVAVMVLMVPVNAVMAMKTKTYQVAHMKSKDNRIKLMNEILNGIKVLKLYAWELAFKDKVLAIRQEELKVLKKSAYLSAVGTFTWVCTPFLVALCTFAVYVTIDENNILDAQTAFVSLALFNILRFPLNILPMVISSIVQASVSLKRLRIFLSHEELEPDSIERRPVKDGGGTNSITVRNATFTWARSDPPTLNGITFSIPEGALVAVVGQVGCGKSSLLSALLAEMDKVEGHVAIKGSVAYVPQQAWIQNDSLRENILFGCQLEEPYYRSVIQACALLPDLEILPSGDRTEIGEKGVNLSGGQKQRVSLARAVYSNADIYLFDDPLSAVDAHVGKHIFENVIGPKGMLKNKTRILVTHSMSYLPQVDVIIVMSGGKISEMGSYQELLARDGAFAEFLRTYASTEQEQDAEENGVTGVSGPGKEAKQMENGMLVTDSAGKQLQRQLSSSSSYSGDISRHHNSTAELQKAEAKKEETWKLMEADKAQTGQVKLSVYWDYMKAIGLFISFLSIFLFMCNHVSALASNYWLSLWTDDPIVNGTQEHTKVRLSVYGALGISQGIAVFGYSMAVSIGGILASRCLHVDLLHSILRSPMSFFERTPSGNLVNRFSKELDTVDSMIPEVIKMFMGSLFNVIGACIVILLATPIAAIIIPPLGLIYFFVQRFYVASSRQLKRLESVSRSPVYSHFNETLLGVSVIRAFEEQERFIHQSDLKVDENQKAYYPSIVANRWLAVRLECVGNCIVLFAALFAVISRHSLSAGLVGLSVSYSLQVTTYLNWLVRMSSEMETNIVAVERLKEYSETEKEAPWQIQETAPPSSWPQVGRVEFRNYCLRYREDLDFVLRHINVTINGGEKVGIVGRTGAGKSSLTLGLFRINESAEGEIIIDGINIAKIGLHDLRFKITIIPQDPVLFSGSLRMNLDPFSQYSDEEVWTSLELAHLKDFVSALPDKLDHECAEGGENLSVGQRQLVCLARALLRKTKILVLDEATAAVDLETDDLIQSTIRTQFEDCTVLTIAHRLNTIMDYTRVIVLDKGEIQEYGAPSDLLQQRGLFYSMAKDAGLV

[^14C]-inulin
permeability coefficient across BBB monolayer ([1]; hCMEC/D3 monolayer without compounds, 3 h): 0.45 ± 0.07 × 10^−3 cm·min^−1

lucifer yellow
permeability coefficient across BBB monolayer [1]: 0.43 ± 0.11 × 10^−3 cm·min^−1

COc1ccc2c3c([nH]c2c1)[C@H](C=C(C)C)N1C(=O)[C@@H]2CCCN2C(=O)[C@@H]1C3 [fumitremorgin C]
doxorubicin delivery across hCMEC/D3 cells monolayer [2]: increased

CN(C)C(=O)CCSC(SCCC(=O)O)c1cccc(/C=C/c2ccc3ccc(Cl)cc3n2)c1 (stereo not drawn) [MK571]
doxorubicin delivery across hCMEC/D3 cells monolayer [2]: increased

COc1cc2c(cc1OC)CN(Cc1ccc(-c3ccc(O)cc3)cc1)CC2 [7 (MC70), 4′-(6,7-Dimethoxy-3,4-dihydro-1H-isoquinolin-2-ylmethyl)biphenyl-4-ol]
ATP depletion [3]: does not induce ATP depletion
apparent permeability ratio [4]: < 2

COc1cccc2c1C(=O)c1c(O)c3c(c(O)c1C2=O)C[C@@](O)(C(=O)CO)C[C@@H]3O[C@H]1C[C@H](N)[C@H](O)[C@H](C)O1 [doxorubicin]
LDH release ([5]; 24 h): increased
caspase 3 activity ([5]; 24 h): increased
cell viability ([5]; 48 h): decreased

CCCCOc1ccc(-c2ccc(CN3CCc4cc(OC)c(OC)cc4C3)cc2)cc1 [Compound 6]
TEER (Ω cm^2) Compound 1 nM ([6]; 1 nM compound): 33 ± 2 Ω cm^2
TEER (Ω cm^2) Compound 100 nM ([6]; 100 nM compound): 31 ± 4 Ω cm^2
EC50 [7]: 5.2 nM
doxorubicin delivery across BCRP-MDCK cells [8]: strongly reduced
doxorubicin delivery across MRP1-MDCK cells [9]: strongly reduced
doxorubicin permeability across Pgp-MDCK monolayer [10]: did not change
